Reference: US20230348424A1, “HETEROCYCLIC COMPOUNDS AND METHODS OF USE” (Schrödinger, Inc., priority 2022, published 2023)

Columns and labels:
[1] = molecular target: SOS1:KRAS (G12C) interaction (Homo sapiens (Human), UniProt Q07889); assay: SOS1 KRas(G12C) FRET Assay; assay type: binding; settings: 0.5 nM His10-SOS1 (res. 564-1049), 2.5 nM GST-KRAS G12C (res. 1-169), 2 hrs at RT
Procedure, shortened: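 GST-KRAS G12C (res. 1-169) at 2.5 nM and His10-SOS1 (res. 564-1049) at 0.5 nM, final, in PBS with 0.1% BSA, 5 mM MgCl2, 100 mM KF, 5 mM DTT and 0.5% DMSO. After 2 h at RT, FRET read at 665/615 nm and normalized to DMSO and no-SOS1 controls. IC50 by non-linear regression.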

human SOS1 = human SOS1 (Homo sapiens (Human), UniProt Q07889); assay: Surface Plasmon Resonance (SPR) SOS1 Binding Assay; settings: biotinylated SOS1 (res. 564-1049), Biacore 8K, 25° C., kinetic or steady state fit, 1:1 binding; read-out: hSOS1 KD
Chain of human SOS1 (Q07889 564-1049): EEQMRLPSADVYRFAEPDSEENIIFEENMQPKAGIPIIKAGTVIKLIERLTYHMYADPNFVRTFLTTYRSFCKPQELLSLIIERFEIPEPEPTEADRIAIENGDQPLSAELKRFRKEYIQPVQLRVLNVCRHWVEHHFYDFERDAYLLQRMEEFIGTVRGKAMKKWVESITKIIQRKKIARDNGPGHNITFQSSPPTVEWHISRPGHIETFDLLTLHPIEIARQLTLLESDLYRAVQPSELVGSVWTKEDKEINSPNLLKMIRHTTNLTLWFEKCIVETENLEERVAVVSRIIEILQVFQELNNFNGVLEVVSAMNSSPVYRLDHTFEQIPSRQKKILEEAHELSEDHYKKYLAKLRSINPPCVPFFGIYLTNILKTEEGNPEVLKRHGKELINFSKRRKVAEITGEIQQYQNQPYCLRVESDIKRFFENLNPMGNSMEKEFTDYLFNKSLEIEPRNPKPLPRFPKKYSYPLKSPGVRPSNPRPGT
Procedure: Binding to SOS1 was measured using a SPR assay with purified recombinant human SOS1 substrate (res. 564-1049 with N-terminal Avi tag; purified and biotinylated based on Hillig, et al., Proc Natl Acad Sci USA (2019); 116(7):2551-2560). SPR measurements were performed on a Biacore 8K SPR instrument (GE Healthcare, Sweden). Assays were performed at 25° C. using Series S SA sensor chips pre-coated with streptavidin (GE Healthcare, Cat. BR100531). Biotinylated SOS1 diluted in sample buffer (20 mM Tris HCI, 150 mM NaCl, 1 mM DTT, 0.05% TWEEN 20, 1 mM MgCh, pH 8.0) was captured to one flow cell of the chip to about 3,000 resonance units (RU) using sample buffer supplemented with 5% DMSO as a running buffer. Serial dilutions of the assayed compounds in the running buffer at 100, 50 or 0.5 µM were injected for 60 s at a flow rate of 30 µL/min and association phases were recorded. Dissociation of the samples was monitored for 600 s. Data processing was performed using Biacore Insight Software (Biacore, GE Healthcare). Sensorgrams recorded on a SA flow cell without captured protein were subtracted from sensorgrams recorded on the SOS1 surface. Blank injections of running buffer were used for double referencing and solvent correction was applied to all sample sensorgrams to correct for buffer mismatches. KDS were estimated using a kinetic or steady state, where applicable, fitting model describing a reversible equilibrium with 1:1 binding between SOS1 and the compound.

Chain of SOS1:KRAS (G12C) interaction (Q07889 564-1049, stated change not applied): as the sequence (Q07889 564-1049) above

| SMILES | IC50 [1] [nM] | Kd (human SOS1) [nM] |
| --- | --- | --- |
| C[C@@H](NC(=O)c1cn(C2(C(F)F)CC2)c(=O)cc1NC1CCN(C)CC1)c1cccc(C(F)F)c1F [Example 49, (R)-N-(1-(3-(difluoromethyl)-2-fluorophenyl)ethyl)-1-(1-(difluoromethyl)cyclopropyl)-4-((1-methylpiperidin-4-yl)amino)-6-oxo-1,6-dihydropyridine-3-carboxamide] | 13.5 | 3 |
| C[C@@H](NC(=O)c1cn([C@@H]2CCOC[C@H]2F)c(=O)cc1NC1CCN(C)CC1)c1cccc(C(F)F)c1F [Example 79, N-((R)-1-(3-(difluoromethyl)-2-fluorophenyl)ethyl)-1-((3S,4R)-3-fluorotetrahydro-2H-pyran-4-yl)-4-((1-methylpiperidin-4-yl)amino)-6-oxo-1,6-dihydropyridine-3-carboxamide] | 3.7 | 2 |
| C[C@@H](NC(=O)c1cn([C@H]2CCOC[C@@H]2F)c(=O)cc1NC1CCN(C)CC1)c1cccc(C(F)F)c1F [Example 80, N-((R)-1-(3-(difluoromethyl)-2-fluorophenyl)ethyl)-1-((3R,4S)-3-fluorotetrahydro-2H-pyran-4-yl)-4-((1-methylpiperidin-4-yl)amino)-6-oxo-1,6-dihydropyridine-3-carboxamide] | 16.7 | 8 |
| C[C@@H](NC(=O)c1cn(C2(C(F)F)CC2)c(=O)cc1N[C@H]1CN2CCC1CC2)c1cccc(C(F)F)c1F [Example 83, N-((R)-1-(3-(difluoromethyl)-2-fluorophenyl)ethyl)-1-(1-(difluoromethyl)cyclopropyl)-6-oxo-4-(((R)-quinuclidin-3-yl)amino)-1,6-dihydropyridine-3-carboxamide] | 25.7 | 20 |
| C[C@@H](NC(=O)c1cn(C2(C(F)F)CC2)c(=O)cc1N[C@@H]1CN2CCC1CC2)c1cccc(C(F)F)c1F [Example 84, N-((R)-1-(3-(difluoromethyl)-2-fluorophenyl)ethyl)-1-(1-(difluoromethyl)cyclopropyl)-6-oxo-4-(((S)-quinuclidin-3-yl)amino)-1,6-dihydropyridine-3-carboxamide] | 10.2 | 9 |
| C[C@@H](NC(=O)c1cn(C2(C(F)F)CC2)c(=O)cc1NC[C@@H]1CC2CCN1CC2)c1cccc(C(F)F)c1F [Example 85, N-((R)-1-(3-(difluoromethyl)-2-fluorophenyl)ethyl)-1-(1-(difluoromethyl)cyclopropyl)-6-oxo-4-((((S)-quinuclidin-2-yl)methyl)amino)-1,6-dihydropyridine-3-carboxamide] | 26.1 | 12 |
| C[C@@H](NC(=O)c1cn(C2(C(F)F)CC2)c(=O)cc1NC[C@H]1CC2CCN1CC2)c1cccc(C(F)F)c1F [Example 86, N-((R)-1-(3-(difluoromethyl)-2-fluorophenyl)ethyl)-1-(1-(difluoromethyl)cyclopropyl)-6-oxo-4-((((R)-quinuclidin-2-yl)methyl)amino)-1,6-dihydropyridine-3-carboxamide] | 73.1 | 29 |
| C[C@@H](NC(=O)c1cn(C23CC(C2)C3)c(=O)cc1N[C@H]1[C@@H]2CN(C)C[C@@H]21)c1cccc(C(F)F)c1F [Example 90, 1-(bicyclo[1.1.1]pentan-1-yl)-N-((R)-1-(3-(difluoromethyl)-2-fluorophenyl)ethyl)-4-(((1R,5S,6s)-3-methyl-3-azabicyclo[3.1.0]hexan-6-yl)amino)-6-oxo-1,6-dihydropyridine-3-carboxamide] | 13.4 | 9 |

The remaining lines, values ahead:

| IC50 [1] [nM] | Kd (human SOS1) [nM] | SMILES |
| --- | --- | --- |
| 553 | 186 | Cc1c([C@@H](C)NC(=O)c2cn(C3CCOCC3)c(=O)cc2NC2CCOCC2)cccc1C(F)(F)F [Example 42, (R)-N-(1-(2-methyl-3-(trifluoromethyl)phenyl)ethyl)-6-oxo-1-(tetrahydro-2H-pyran-4-yl)-4-((tetrahydro-2H-pyran-4-yl)amino)-1,6-dihydropyridine-3-carboxamide] |
| 37.9 | 21 | Cc1c([C@@H](C)NC(=O)c2cn(C3CCOCC3)c(=O)cc2NC2(C)CCN(C)CC2)cccc1C(F)(F)F [Example 45, (R)-4-((1,4-dimethylpiperidin-4-yl)amino)-N-(1-(2-methyl-3-(trifluoromethyl)phenyl)ethyl)-6-oxo-1-(tetrahydro-2H-pyran-4-yl)-1,6-dihydropyridine-3-carboxamide] |
| 20.3 | 8 | Cc1c([C@@H](C)NC(=O)c2cn(C3(C(F)F)CC3)c(=O)cc2NC2CCN(C)CC2)cccc1C(F)(F)F [Example 50, (R)-1-(1-(difluoromethyl)cyclopropyl)-N-(1-(2-methyl-3-(trifluoromethyl)phenyl)ethyl)-4-((1-methylpiperidin-4-yl)amino)-6-oxo-1,6-dihydropyridine-3-carboxamide] |
| 18.5 | 8 | C[C@@H](NC(=O)c1cn(C2(C(F)F)CC2)c(=O)cc1NC1CCN(C)CC1)c1cccc(C(C)(F)F)c1F [Example 51, (R)-N-(1-(3-(1,1-difluoroethyl)-2-fluorophenyl)ethyl)-1-(1-(difluoromethyl)cyclopropyl)-4-((1-methylpiperidin-4-yl)amino)-6-oxo-1,6-dihydropyridine-3-carboxamide] |
| 13.6 | 6 | C[C@@H](NC(=O)c1cn(C2(C(F)F)CC2)c(=O)cc1NC1CCN(C)CC1)c1cccc(C(F)(F)F)c1F [Example 52, (R)-1-(1-(difluoromethyl)cyclopropyl)-N-(1-(2-fluoro-3-(trifluoromethyl)phenyl)ethyl)-4-((1-methylpiperidin-4-yl)amino)-6-oxo-1,6-dihydropyridine-3-carboxamide] |
| 65 | 34 | C[C@@H](NC(=O)c1cn(C2(C(F)F)CC2)c(=O)cc1NCCN(C)C)c1cccc(C(F)F)c1F [Example 61, (R)-N-(1-(3-(difluoromethyl)-2-fluorophenyl)ethyl)-1-(1-(difluoromethyl)cyclopropyl)-4-((2-(dimethylamino)ethyl)amino)-6-oxo-1,6-dihydropyridine-3-carboxamide] |
| 174 | 96 | C[C@@H](NC(=O)c1cn(C2(C(F)F)CC2)c(=O)cc1NCCN1CCOCC1)c1cccc(C(F)F)c1F [Example 81, (R)-N-(1-(3-(difluoromethyl)-2-fluorophenyl)ethyl)-1-(1-(difluoromethyl)cyclopropyl)-4-((2-morpholinoethyl)amino)-6-oxo-1,6-dihydropyridine-3-carboxamide] |
| 26.3 | 17 | C[C@@H](NC(=O)c1cn(C2(C(F)F)CC2)c(=O)cc1NC1CCN(CCF)CC1)c1cccc(C(F)F)c1F [Example 82, (R)-N-(1-(3-(difluoromethyl)-2-fluorophenyl)ethyl)-1-(1-(difluoromethyl)cyclopropyl)-4-((1-(2-fluoroethyl)piperidin-4-yl)amino)-6-oxo-1,6-dihydropyridine-3-carboxamide] |
| 61.7 | 84 | C[C@H](Nc1cc(=O)n(C2(C(F)F)CC2)cc1C(=O)N[C@H](C)c1cccc(C(F)F)c1F)c1cncn1C [Example 87, N-((R)-1-(3-(difluoromethyl)-2-fluorophenyl)ethyl)-1-(1-(difluoromethyl)cyclopropyl)-4-(((S)-1-(1-methyl-1H-imidazol-5-yl)ethyl)amino)-6-oxo-1,6-dihydropyridine-3-carboxamide] |
| 87.3 | 96 | C[C@@H](NC(=O)c1cn(C2(C(F)F)CC2)c(=O)cc1N[C@H](C)c1cncn1C)c1cccc(C(F)F)c1F [Example 88, N-((R)-1-(3-(difluoromethyl)-2-fluorophenyl)ethyl)-1(1-(difluoromethyl)cyclopropyl)-4(((R)-1-(1-methyl-1H-imidazol-5-yl)ethyl)amino)-6-oxo-1,6-dihydropyridine-3-carboxamide] |
| 13.9 | 12 | [2H]C([2H])([2H])N1C[C@@H]2[C@H](C1)[C@H]2Nc1cc(=O)n(C23CC(C2)C3)cc1C(=O)N[C@H](C)c1cccc(C(F)F)c1F [Example 91, 1-(bicyclo[1.1.1]pentan-1-yl)-N-((R)-1-(3-(difluoromethyl)-2-fluorophenyl)ethyl)-4-(((1R,5S,6s)-3-(methyl-d3)-3-azabicyclo[3.1.0]hexan-6-yl)amino)-6-oxo-1,6-dihydropyridine-3-carboxamide] |
| 23.2 | 13 | C[C@@H](NC(=O)c1cn([C@H]2CC2(F)F)c(=O)cc1N[C@H]1[C@@H]2CN(C)C[C@@H]21)c1cccc(C(F)F)c1F [Example 93, 1-((S)-2,2-difluorocyclopropyl)-N-((R)-1-(3-(difluoromethyl)-2-fluorophenyl)ethyl)-4-(((lR,5S,6s)-3-methyl-3-azabicyclo[3.1.0]hexan-6-yl)amino)-6-oxo-1,6-dihydropyridine-3-carboxamide] |
